Results taken from PubChem BioAssay (NCI).
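These data come from cells grown in 96-well plates and exposed to compound for 48 hours at five concentrations. GI50 is the concentration that inhibits growth by half. Definition used: TGI = concentration required for complete inhibition of growth.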

Tests used:
Assay in all cases: DTP human tumour cell line panel, 48 h
UACC-257 melanoma = tested on: UACC-257 melanoma
HL-60(TB) leukemia = tested on: HL-60(TB) leukemia
SF-268 CNS = tested on: SF-268 CNS
SNB-19 CNS = tested on: SNB-19 CNS
RPMI-8226 leukemia = tested on: RPMI-8226 leukemia
NCI/ADR-RES ovarian = tested on: NCI/ADR-RES ovarian
K-562 leukemia = tested on: K-562 leukemia
U251 CNS = tested on: U251 CNS
786-0 renal = tested on: 786-0 renal
SW-620 colon = tested on: SW-620 colon
HS 578T breast = tested on: HS 578T breast
MCF7 breast = tested on: MCF7 breast
NCI-H460 lung = tested on: NCI-H460 lung
SF-295 CNS = tested on: SF-295 CNS
A549 NSCLC = tested on: A549 NSCLC
SK-MEL-2 melanoma = tested on: SK-MEL-2 melanoma
IGROV1 ovarian = tested on: IGROV1 ovarian
COLO 205 colon = tested on: COLO 205 colon
SR leukemia = tested on: SR leukemia
OVCAR-3 ovarian = tested on: OVCAR-3 ovarian
DU-145 prostate = tested on: DU-145 prostate
MDA-MB-435 = tested on: MDA-MB-435
CCRF-CEM leukemia = tested on: CCRF-CEM leukemia
SF-539 CNS = tested on: SF-539 CNS
SN12C renal = tested on: SN12C renal
A498 renal = tested on: A498 renal
LOX IMVI melanoma = tested on: LOX IMVI melanoma
PC-3 prostate = tested on: PC-3 prostate
UO-31 renal = tested on: UO-31 renal
M14 melanoma = tested on: M14 melanoma
CAKI-1 renal = tested on: CAKI-1 renal
KM12 colon = tested on: KM12 colon
OVCAR-8 ovarian = tested on: OVCAR-8 ovarian
MALME-3M melanoma = tested on: MALME-3M melanoma
MDA-MB-231 breast = tested on: MDA-MB-231 breast
HCT-116 colon = tested on: HCT-116 colon
NCI-H522 lung = tested on: NCI-H522 lung
SK-OV-3 ovarian = tested on: SK-OV-3 ovarian
UACC-62 melanoma = tested on: UACC-62 melanoma
T-47D breast = tested on: T-47D breast
OVCAR-5 ovarian = tested on: OVCAR-5 ovarian
NCI-H23 lung = tested on: NCI-H23 lung
RXF 393 renal = tested on: RXF 393 renal
TK-10 renal = tested on: TK-10 renal
NCI-H226 lung = tested on: NCI-H226 lung
EKVX NSCLC = tested on: EKVX NSCLC
HOP-62 NSCLC = tested on: HOP-62 NSCLC
HCT-15 colon = tested on: HCT-15 colon
OVCAR-4 ovarian = tested on: OVCAR-4 ovarian
MOLT-4 leukemia = tested on: MOLT-4 leukemia
SK-MEL-28 melanoma = tested on: SK-MEL-28 melanoma
SK-MEL-5 melanoma = tested on: SK-MEL-5 melanoma

CCOC(=O)/C(C#N)=C\C=C(\Sc1nc2ccccc2s1)c1ccc(Cl)cc1
GI50 (UACC-257 melanoma): 13.7 µM
TGI (UACC-257 melanoma): 46.8 µM
GI50 (HL-60(TB) leukemia): 24.2 µM
TGI (HL-60(TB) leukemia): > 100 µM
GI50 (SF-268 CNS): 31.8 µM
TGI (SF-268 CNS): > 100 µM
GI50 (SNB-19 CNS): 66.6 µM
TGI (SNB-19 CNS): > 100 µM
GI50 (RPMI-8226 leukemia): 2.47 µM
TGI (RPMI-8226 leukemia): 14 µM
GI50 (NCI/ADR-RES ovarian): 27.5 µM
TGI (NCI/ADR-RES ovarian): 61.2 µM
GI50 (K-562 leukemia): 20.2 µM
TGI (K-562 leukemia): > 100 µM
GI50 (U251 CNS): 29 µM
TGI (U251 CNS): > 100 µM
GI50 (786-0 renal): 19.3 µM
TGI (786-0 renal): 36.3 µM
GI50 (SW-620 colon): 14.3 µM
TGI (SW-620 colon): 39.2 µM
GI50 (HS 578T breast): 31.6 µM
TGI (HS 578T breast): 68 µM
GI50 (MCF7 breast): 29.1 µM
TGI (MCF7 breast): 84.5 µM
GI50 (NCI-H460 lung): 80.8 µM
TGI (NCI-H460 lung): > 100 µM
GI50 (SF-295 CNS): 37.9 µM
TGI (SF-295 CNS): > 100 µM
GI50 (A549 NSCLC): > 100 µM
TGI (A549 NSCLC): > 100 µM
GI50 (SK-MEL-2 melanoma): 14.8 µM
TGI (SK-MEL-2 melanoma): 33.5 µM
GI50 (IGROV1 ovarian): 18.8 µM
TGI (IGROV1 ovarian): 37.6 µM
GI50 (COLO 205 colon): 20.1 µM
TGI (COLO 205 colon): 42.8 µM
GI50 (SR leukemia): 4.91 µM
TGI (SR leukemia): 46.9 µM
GI50 (OVCAR-3 ovarian): 14.4 µM
TGI (OVCAR-3 ovarian): 27.5 µM
GI50 (DU-145 prostate): 18.7 µM
TGI (DU-145 prostate): 35.4 µM
GI50 (MDA-MB-435): 16.8 µM
TGI (MDA-MB-435): 35.3 µM
GI50 (CCRF-CEM leukemia): 2.28 µM
TGI (CCRF-CEM leukemia): 9.5 µM
GI50 (SF-539 CNS): 22.1 µM
TGI (SF-539 CNS): 40.8 µM
GI50 (SN12C renal): 19.9 µM
TGI (SN12C renal): 45.2 µM
GI50 (A498 renal): 27.7 µM
TGI (A498 renal): 72.5 µM
GI50 (LOX IMVI melanoma): 10.9 µM
TGI (LOX IMVI melanoma): > 100 µM
GI50 (PC-3 prostate): 13.5 µM
TGI (PC-3 prostate): 26.3 µM
GI50 (UO-31 renal): 17 µM
TGI (UO-31 renal): 35.4 µM
GI50 (M14 melanoma): 26.4 µM
TGI (M14 melanoma): 54.3 µM
GI50 (CAKI-1 renal): 19.5 µM
TGI (CAKI-1 renal): 41.4 µM
GI50 (KM12 colon): 38 µM
TGI (KM12 colon): > 100 µM
GI50 (OVCAR-8 ovarian): 30.4 µM
TGI (OVCAR-8 ovarian): 83.9 µM
GI50 (MALME-3M melanoma): 19.4 µM
TGI (MALME-3M melanoma): 37.9 µM
GI50 (MDA-MB-231 breast): 50.9 µM
TGI (MDA-MB-231 breast): > 100 µM
GI50 (HCT-116 colon): 17.1 µM
TGI (HCT-116 colon): 33.1 µM
GI50 (NCI-H522 lung): 18.5 µM
TGI (NCI-H522 lung): 41.4 µM
GI50 (SK-OV-3 ovarian): 39.6 µM
TGI (SK-OV-3 ovarian): > 100 µM
GI50 (UACC-62 melanoma): 29.8 µM
TGI (UACC-62 melanoma): 81.5 µM
GI50 (T-47D breast): 20.3 µM
TGI (T-47D breast): 45.1 µM
GI50 (OVCAR-5 ovarian): > 100 µM
TGI (OVCAR-5 ovarian): > 100 µM
GI50 (NCI-H23 lung): 20.9 µM
TGI (NCI-H23 lung): 38.9 µM
GI50 (RXF 393 renal): 18.3 µM
TGI (RXF 393 renal): 37.6 µM
GI50 (TK-10 renal): 20 µM
TGI (TK-10 renal): 37.3 µM
GI50 (NCI-H226 lung): 24 µM
TGI (NCI-H226 lung): 46.7 µM
GI50 (EKVX NSCLC): 14.8 µM
TGI (EKVX NSCLC): 31.6 µM
GI50 (HOP-62 NSCLC): 29.1 µM
TGI (HOP-62 NSCLC): 72.2 µM
GI50 (HCT-15 colon): 16.4 µM
TGI (HCT-15 colon): 45.2 µM
GI50 (OVCAR-4 ovarian): 22 µM
TGI (OVCAR-4 ovarian): 57.8 µM
GI50 (MOLT-4 leukemia): 3.88 µM
TGI (MOLT-4 leukemia): > 100 µM
GI50 (SK-MEL-28 melanoma): 25.5 µM
TGI (SK-MEL-28 melanoma): 69.5 µM
GI50 (SK-MEL-5 melanoma): 15.1 µM
TGI (SK-MEL-5 melanoma): 31.9 µM
